In patent US6855549B1, “Methods and compositions for increasing the infectivity of gene transfer vectors” (The University of Iowa Research Foundation, priority 1998, dated 2005):

Key:
[1] = system: differentiated human airway epithelial cells; assay type: cell-based; conditions: 5 μM AZT at addition of FIV-βgal vector/EGTA to apical surface
[2] = system: differentiated human airway epithelia; assay: Transepithelial resistance of KGF-treated airway epithelia with Ca2+ chelators; assay type: cell-based
Experimental: Differentiated epithelial cells were treated with 100 ng/ml KGF for 24 hr. Different concentrations of each calcium chelator in HEPES/HCl (pH 7.4) or in isotonic HEPES/saline (pH 7.4) buffer were mixed with vector buffer and applied to the apical surface for times as specified (Wang et al., 1998). Transepithelial resistance was measured with an Ohmmeter (EVOM; World Precision Instruments, Inc. Sarasota, Fla.) by adding cell culture media to the apical surface and the values were compared to untreated controls.
To understand whether the tonicity of the vector solution affects epithelial permeability and gene transfer efficiency, hypotonic (40 mmol/kg) or isotonic (220 mmol/kg) solutions of 6 mM EGTA, EDTA or BAPTA were added to the MuLV vector buffer and applied to the apical surface of differentiated airway epithelial cells pre-treated with KGF. At specific time intervals, transepithelial resistance (R1) was measured using an Ohmmeter.

[3] = system: rabbit tracheal epithelium; assay: Tracheal transepithelial voltage (Vt) in anesthetized rabbits; assay type: in vivo; conditions: rabbit, in vivo
Experimental: Rabbit studies. The transepithelial electrical potential difference across the rabbit tracheal epithelium (Vt) was measured using a modification of previously described methods (Zabner et al., 1996). The reference electrode was a subcutaneous needle connected with sterile normal saline solution to a silver/silver chloride pellet. Adult New Zealand white rabbits (n=4/group) were anesthetized with 32 mg/kg ketamine, 5.1 mg/kg xylazine and 0.8 mg/kg acepromazine intramuscularly and placed with the head in the dependent position. An exploring electrode (pediatric size 8 Teflon-coated latex double lumen Foley catheter, modified Ruseh, Inc., Duluth, Ga.) was inserted into the tracheal lumen via a tracheotomy incision. One lumen of the catheter was filled with sterile normal saline solution and was connected to a silver/silver chloride pellet. Voltage was measured with a voltmeter connected to a strip chart recorder. The catheter was then left in that position for the entire recording period. The solutions were administered through the second lumen in the following order: 1) Normal saline for 5 min; 2) Sterile water with 10 mM EGTA for 10 min; 3) Normal saline with 10 mM EGTA for 5 min; and 4) Normal saline with 10 mM EGTA plus 100 μM amiloride for 5 min. Measurements of Vt were read by two investigators who were blinded to the treatment received. There wre no discrepancies in readings of greater than 2 mV between the investigators. Disruption of epithelial junctions was assessed by detecting a fall in […] Vt after perfusion with the chelator, and by the loss of amiloride-sensitive Vt after perfusion with the chelator solution.

human nasal epithelium = assay: Nasal transepithelial voltage (Vt) in human volunteers; assay type: in vivo; conditions: human, in vivo
Experimental: Human studies. The Vt across the nasal epithelium was measured in 6 volunteers using previously described methods (Zabner et al., 1996). The protocol followed was identical to that described above for the rabbit studies. […] The catheter was then left in that position for the entire recording period. The solutions were administered through the second lumen in the following order: 1) Normal saline for 5 min; 2) Sterile water with 10 mM EGTA or 10 mM EDTA for 10 min; 3) Nommal saline with 10 mM EGTA or 10 mM EDTA for 5 min; and 4) Normal saline with 10 mM, EGTA or 10 mM EDTA plus […] amiloride for 5 min. Measurements of Vt were read by two investigators who were blinded and wvere checked by a third investigator if there was a discrepancy of more than 2 mV. Disruption of epithelial junctions was assessed by detecting a fall in nasal Vt after perfusion with the chelator, and by the loss of amiloride-sensitive Vt after perfusion with the. chelator solution.

[4] = system: differentiated human airway epithelia; assay type: cell-based
human airway epithelia [5] = assay: BrdU labeling of differentiated human airway epithelia; assay type: cell-based; conditions: for BrdU incorporation versus control epithelia: EGF 200 ng/ml, heregulin 5 nM
Experimental: BrdU immunohistochemistry. BrdU labeling and immunostaining was performed using a kit from Zymed Laboratories Inc. (South San Francisco, Calif.). In studies that investigate the effects of growth factors, the cells may be treated with 50-100 ng/ml growth factor for 36 h. A 1:100 dilution of the BrdU labeling reagent was added to the culture media and cells labeled for 4 hours followed by fixation in 10% neutralized Formalin. BrdU histochemistry was performed following the methods of the Zymed BrdU kit. Labeled nuclei stained brown under these conditions. Epithelial cell preparations were examined microscopically en face or in cross sections of paraffin embedded membranes and the percentage of brown staining nuclei determined. Hematoxylin or 4′,6-diamidino-2-phenylindole, dibydrochloride (DAPI) (Molecular Probes, Eugene, Oreg.) were used for counterstains.
To determine whether growth factors are mitogenic to human airway epithelia, primary cultures of cells grown at the air-liquid interface were utilized. These cultures have ion transport properties and morphology similar to the intact surface epithelium (Smith et al., 1996; Kondo et al., 1991) and after 14 days in culture the cells are well-differentiated, ciliated, and have ion transport properties similar to the intact airways (Zabner et al., 1996; Yamaya et al., 1992). […] After 24 hours of growth factor treatment, growth factor administration doubles the monolayer cell number compared to control. HGF treatment (200 ng/ml) increased cell labeling to 17-36%, while 5-10% of untreated controls were BrdU positive (n=3).

human airway epithelia [6] = assay: [3H] thymidine incorporation in primary cultures of human airway epithelia; assay type: cell-based; conditions: 200 ng/ml HGF

In the case of `Cc1cn([C@H]2C[C@H](N=[N+]=[N-])[C@@H](CO)O2)c(=O)[nH]c1=O` [AZT, 3′-azido-3′ deoxythymidine], the “expression of vector encoded product (pseudotransduction control)” value [1] is reported as “showed no significant expression of vector encoded product”.
`O=C(O)CN(CC(=O)O)c1ccccc1OCCOc1ccccc1N(CC(=O)O)CC(=O)O` [BAPTA] was tested, and the “fall of R1, isotonic solution” value ([2]; 6 mM, isotonic) was “quickly dropped R1, similar to the hypotonic solutions”.
`O=C(O)CN(CCN(CC(=O)O)CC(=O)O)CC(=O)O` [EDTA] was tested, and the “time required to decrease R1 to ~20% of the controls” value ([2]; 6 mM chelator, isotonic (220 mmol/kg)) was “Sixty”.
For `N=C(N)NC(=O)c1nc(Cl)c(N)nc1N` [amiloride], the “Vt response to amiloride in control tracheas perfused with saline” value [3] was “the anticipated fall in Vt in response to perfusion with amiloride” and the “nasal Vt response to amiloride in control studies” value (human nasal epithelium) was “there was a significant fall in Vt with amiloride treatment”.
In the case of `O` [water], the effect on proliferation ([4]; application of H2O or EGTA to epithelia, control studies) is reported as “had no effect on proliferation” and the “epithelia expressing β-gal” value ([4]; pretreated with water alone, vector to mucosal surface, mean±SE, n=13) is reported as 3±0.5%.
For EGF: epidermal growth factor, the “BrdU incorporation versus control epithelia” value (human airway epithelia [5]) was “increased BrdU incorporation over control epithelia”.
For “HGF: Hepatocyte growth factor, mitogen for pulmonary epithelia”, the “stimulation of cell division measured by [3H] thymidine incorporation” value (human airway epithelia [6]) was 3 fold and the BrdU cell labeling (human airway epithelia [5]; HGF 200 ng/ml, untreated controls 5-10% BrdU positive, n=3) was 17-36%.
In the case of heregulin, the “BrdU incorporation versus control epithelia” value (human airway epithelia [5]) is reported as “increased BrdU incorporation over control epithelia”.
